Measured values published in patent US12669497B2, “Affinity labeling of DNA-linked ligands for high throughput ligand binding assays and the uses thereof” (Purdue Research Foundation, priority 2020, dated 2026).
pIC50: −log10 of the molar value.

Key:
[1] = molecular target: dihydrofolate reductase (DHFR) (Escherichia coli, UniProt P0ABQ4); assay: LDA screening of LOPAC library with DNA-linked trimethoprim probe; assay type: binding; conditions: FIG. 2f
Protocol: (§1) FIGS. 2A-2H show the application of LDA in quantifying compounds' IC50 and screening. […] IC50 of compound 1-3 determined by LDA (FIG. 2B) and FP assay (FIG. 2C). […] DNA samples with read numbers below 2 in sequencing were excluded.
(§2) Enrichment of the probes from the two groups were well distinguished (Z′ factor=0.77), indicating a robustness suitable for HTS (FIG. 1e). To further assess well-to-well variability, this experiment was repeated with separate incubation of samples in a well plate. A similar but slightly worse Z′ factor (Z′=0.54, Fig. SX) was observed. We then used this approach to screen the Library of Pharmacologically Active Compounds (LOPAC) library against dihydrofolate reductase (DHFR), a therapeutic target for treating infections (FIG. 2f). Hit compounds within the library displaces the DNA-linked trimethoprim, leading to lower enrichment of the DNA-trimethoprim.

DHFR = DHFR (Escherichia coli, UniProt P0ABQ4); assay: Validation of novel hit by FP assay (IC50); assay type: binding; conditions: validation of screening hit; FIG. 2g
Protocol: as §1, §2

CN(CCOc1ccc(C[C@H](Nc2ccccc2C(=O)c2ccccc2)C(=O)O)cc1)c1ccccn1 [GW1929] was tested, and the “probe recovery (enrichment of DNA-trimethoprim) in LOPAC screen” value [1] was “low probe recovery” and the pIC50 (DHFR) was 5.10.
